From patent US5876761A, “Sustained release formulations of water soluble peptides” (Novartis AG, priority 1990, dated 1999)
“Also recorded” adds a separate entry of the source.

Assay: Stability of octreotide pamoate in sustained release formulations
Format: physicochemical
Conditions: in sustained release formulations (microparticles); hydrate

Structure (SMILES): C[C@@H](O)[C@@H]1NC(=O)[C@H](CCCCN)NC(=O)[C@@H](Cc2c[nH]c3ccccc23)NC(=O)[C@H](Cc2ccccc2)NC(=O)[C@@H](NC(=O)[C@H](N)Cc2ccccc2)CSSC[C@@H](C(=O)N[C@H](CO)[C@@H](C)O)NC1=O [pamoate, octreotide pamoate hydrate]
- stability: excellent stability; also recorded: very stable
